Measurements: PMC7181960 (ChemMedChem, 2019)
Like-named read-outs stand apart in the source and are kept apart here.

What was measured:
PC3 = experiment: PrestoBlue Cell Viability assay, 72 h; format: cell-based, human; conditions: read-out: IC50 PC3, 72 h incubation
PC3 cells [1] = experiment: Cell death assay; format: cell-based, human; conditions: PC3, IC50 concentration, 72 h, flow cytometry
IMR-90 = conditions: read-out: IC50 IMR-90; 72 h incubation; values previously reported, ref [10]; cited from earlier work
[2] = test system: Vascular Endothelial Growth Factor (VEGF); experiment: Immunofluorescent analysis of VEGF level in PC3 cells; format: cell-based, human; conditions: PC3, IC20 concentration, 24 h incubation
Caki-1 [3] = conditions: read-out: IC50 Caki-1; 72 h incubation; values previously reported, ref [10]; cited from earlier work
PC3 cells [4] = conditions: previously described, ref [16]; cited from earlier work
Caki-1 [5] = experiment: PrestoBlue Cell Viability assay, 72 h; conditions: read-out: IC50 Caki-1, 72 h incubation

Structure (SMILES) | IC50 (PC3) | apoptosis, % of the cell population (PC3 cells [1]) | IC50 (IMR-90) | reduction of VEGF [2] | IC50 (Caki-1 [3]) | reduction of migration (PC3 cells [4]) | IC50 (Caki-1 [5])
CC(=O)OC[C@H]1O[C@@H]([S-])[C@H](OC(C)=O)[C@@H](OC(C)=O)[C@@H]1OC(C)=O.CCP(CC)CC.[Au+] [Auranofin] | 3.6 ± 0.005 µM | 73% | 3.7 ± 0.4 µM | 50% | 2.8 ± 0.6 µM |  | 
COc1ccc(C[C]2([Ti+2][C]3(Cc4ccc(OC)cc4)C=CC=C3)C=CC=C2)cc1.[Cl-].[Cl-] [Titanocene-Y] | 58.1 ± 11.2 µM |  |  |  |  | 19% | 29.4 ± 4.2 µM
N.N.[Cl][Pt][Cl] [Cisplatin] | 6.7 ± 2.8 µM |  | 3.9 ± 0.5 µM |  | 23.9 ± 2.4 µM |  | 
